For one assay, the system named is IKZF2. As to the kind of experiment: Cellular degradation assay, eGFP-IKZF2Δ fusion with mCherry reporter in Flp-In 293 cells. Type of assay: cell-based. Conditions: 5 h incubation, n=1. The method, boiled down: (§1)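 Flp-In 293 cells stably expressing eGFP-tagged degron fusions with P2A-mCherry reporter were treated with compound titrations (0.5% DMSO) for 5 hours. Imaging quantified GFP-positive/mCherry-positive cell fraction per well; DC50 at 5 h from nonlinear variable-slope fit.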

Another assay deals with T1, CRBN and Helios (IKZF2) (Homo sapiens, UniProt Q96SW2+Q9UKS7).
T1 construct: His (N); Strep (N)
T1 sequence (Q96SW2 whole entry): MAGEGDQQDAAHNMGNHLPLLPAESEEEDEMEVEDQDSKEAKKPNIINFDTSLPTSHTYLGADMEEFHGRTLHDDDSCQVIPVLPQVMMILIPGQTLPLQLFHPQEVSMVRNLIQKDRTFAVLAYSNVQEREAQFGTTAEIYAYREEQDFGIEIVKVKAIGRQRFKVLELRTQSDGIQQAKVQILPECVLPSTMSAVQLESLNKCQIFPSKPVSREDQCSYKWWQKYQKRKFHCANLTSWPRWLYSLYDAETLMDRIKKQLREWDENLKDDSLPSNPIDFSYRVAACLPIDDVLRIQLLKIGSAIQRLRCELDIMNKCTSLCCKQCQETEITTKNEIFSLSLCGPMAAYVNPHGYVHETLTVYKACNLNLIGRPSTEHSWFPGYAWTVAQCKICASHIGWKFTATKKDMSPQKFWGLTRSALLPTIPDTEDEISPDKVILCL
T1 sequence (Q9UKS7 whole entry): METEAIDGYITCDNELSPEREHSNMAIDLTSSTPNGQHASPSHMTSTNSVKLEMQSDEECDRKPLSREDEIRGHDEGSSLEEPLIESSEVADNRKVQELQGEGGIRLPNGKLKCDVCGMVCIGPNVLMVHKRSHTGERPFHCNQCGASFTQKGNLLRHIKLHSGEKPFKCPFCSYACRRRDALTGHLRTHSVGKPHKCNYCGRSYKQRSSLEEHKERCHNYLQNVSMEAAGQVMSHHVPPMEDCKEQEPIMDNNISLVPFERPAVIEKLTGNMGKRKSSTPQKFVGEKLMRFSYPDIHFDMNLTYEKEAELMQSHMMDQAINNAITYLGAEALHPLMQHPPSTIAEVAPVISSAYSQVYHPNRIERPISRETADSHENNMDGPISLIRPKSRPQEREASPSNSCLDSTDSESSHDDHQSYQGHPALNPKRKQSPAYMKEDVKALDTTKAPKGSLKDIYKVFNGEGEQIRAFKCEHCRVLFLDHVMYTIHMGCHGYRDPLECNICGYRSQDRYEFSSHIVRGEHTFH
As to the kind of experiment: TR-FRET dimerization assay (CRBN-IKZF2 ternary complex formation). Type of assay: binding. Conditions: n=1. An outline of the steps: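 BODIPY-labeled DDB1ΔB-CRBN and in vitro biotinylated IKZF2 were treated with increasing compound concentrations plus tracer Terbium-Streptavidin and incubated 15 min at rt. Recruitment was quantified as the 520/490 nm TR-FRET ratio; values are single measurements (n=1), each averaged from at least three technical replicates.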
On the technique in general: TR-FRET usually uses a lanthanide donor and a delayed reading to cut background.

For the next assay, the target named is T2, SALL4 ZNF1-2 (Homo sapiens, UniProt Q96SW2+Q9UJQ4).
T2 construct: IKZF1Δ, IKZF2Δ, GSPT1 and SALL4 ZnF1-2 were subcloned; expressed in transfected cells; host or cells: Flp-In 293
T2 sequence (Q9UJQ4 378-438 limits assumed): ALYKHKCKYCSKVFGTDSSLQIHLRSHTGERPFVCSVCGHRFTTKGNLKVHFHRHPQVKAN
T2 sequence (Q96SW2 whole entry): as the sequence (Q96SW2 whole entry) above
T2 sequence (Q16531 whole entry partner): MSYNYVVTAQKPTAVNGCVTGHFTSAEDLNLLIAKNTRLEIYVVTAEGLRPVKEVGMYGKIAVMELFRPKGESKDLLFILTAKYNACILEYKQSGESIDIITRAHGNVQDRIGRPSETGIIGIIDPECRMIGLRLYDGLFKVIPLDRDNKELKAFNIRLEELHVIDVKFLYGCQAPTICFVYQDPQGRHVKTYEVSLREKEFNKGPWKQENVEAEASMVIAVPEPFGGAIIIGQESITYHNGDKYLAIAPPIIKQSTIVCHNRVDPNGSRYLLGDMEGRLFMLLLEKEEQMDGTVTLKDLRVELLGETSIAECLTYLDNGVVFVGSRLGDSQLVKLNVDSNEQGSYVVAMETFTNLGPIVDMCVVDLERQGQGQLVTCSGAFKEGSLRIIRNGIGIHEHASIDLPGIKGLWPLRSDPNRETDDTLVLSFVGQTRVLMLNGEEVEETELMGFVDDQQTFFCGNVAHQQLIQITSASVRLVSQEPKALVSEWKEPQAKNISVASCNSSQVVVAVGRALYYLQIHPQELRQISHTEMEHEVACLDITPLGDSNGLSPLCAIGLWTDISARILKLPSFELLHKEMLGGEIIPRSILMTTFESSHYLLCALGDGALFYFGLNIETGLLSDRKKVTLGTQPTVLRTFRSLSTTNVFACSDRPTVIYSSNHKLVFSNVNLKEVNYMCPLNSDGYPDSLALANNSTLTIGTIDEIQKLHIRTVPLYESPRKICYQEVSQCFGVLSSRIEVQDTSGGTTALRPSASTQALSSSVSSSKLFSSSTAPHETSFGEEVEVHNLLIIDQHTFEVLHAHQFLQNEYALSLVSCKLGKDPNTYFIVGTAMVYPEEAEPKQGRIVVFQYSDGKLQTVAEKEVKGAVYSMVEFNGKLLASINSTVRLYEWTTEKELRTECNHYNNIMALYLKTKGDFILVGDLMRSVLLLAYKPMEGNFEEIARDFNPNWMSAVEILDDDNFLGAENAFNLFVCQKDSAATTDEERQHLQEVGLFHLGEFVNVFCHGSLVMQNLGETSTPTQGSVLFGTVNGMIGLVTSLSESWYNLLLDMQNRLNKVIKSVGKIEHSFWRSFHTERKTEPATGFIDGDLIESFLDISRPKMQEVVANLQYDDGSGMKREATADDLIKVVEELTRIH
The assay can be described thus: Cellular degradation assay, eGFP-SALL4 ZnF1-2 fusion with mCherry reporter in Flp-In 293 cells. Type of assay: cell-based. Conditions: 5 h incubation, n=1. The protocol:
IKZF1Δ, IKZF2Δ, GSPT1 and SALL4 ZnF1-2 were subcloned into mammalian pcDNA5/FRT Vector (Ampicillin and Hygromycin B resistant) modified to contain MCS-eGFP-P2A-mCherry. Stable cell lines expressing eGFP-protein fusion and mCherry reporter were generated using Flp-In™ 293 system. Plasmid (0.3 μg) and pOG44 (4.7 μg) DNA were preincubated in 100 μL of Opti-MEM® I (Gibco®, Life Technologies™) media containing 0.05 mg/mL Lipofectamine® 2000 (Invitrogen™) for 20 min and added to Flp-In™ 293 cells containing 1.9 ml of DMEM media (Gibco®, Life Technologies™) per well in a 6-well plate format (Falcon, 353046). Cells were propagated after 48 h and transferred into a 10 cm^2 plate (Corning, 430165) in DMEM media containing 50 μg/mL of Hygromycin B (REF 10687010, Invitrogen™) as a selection marker. Following 2-3 passage cycle, FACS (FACSAria™ II, BD) was used to enrich for cells expressing eGFP and mCherry. Cells stably expressing the IKZF1Δ, IKZF2Δ, GSPT1 or SALL4 Znf1-2 GFP fusions with mCherry reporter were seeded at 30-50% confluency in 384-well plates with 50 μL FluoroBrite™ DMEM media (Thermo Fisher Scientific, A18967) containing 10% FBS per well a day before compound treatment. Compound titrations were dispensed using a D300e Digital Dispenser (HP), normalized to 0.5% DMSO, and incubated with cells for 5 hours. The assay plate was imaged immediately using an Acumen® High Content Imager (TTP Labtech) with 488 nm and 561 nm lasers in […] grid per well format.
The resulting images were analyzed using CellProfiler™. A series of image analysis steps (‘image analysis pipeline’) was constructed. First, the red and green channels were aligned and cropped to target the middle of each well (to avoid analysis of heavily clumped cells at the edges), and a background illumination function was calculated for both red and green channels of each well individually and subtracted to correct for illumination variations across the 384-well plate from various sources of error. An additional step was then applied to the green channel to suppress the analysis of large auto fluorescent artifacts and enhance the analysis of cell specific fluorescence by way of selecting for objects under a given size, 30 A.U., and with a given shape, speckles. mCherry-positive cells were then identified in the red channel filtering for objects between 8-60 pixels in diameter and using intensity to distinguish between clumped objects. The green channel was then segmented into GFP positive and negative areas and objects were labeled as GFP positive if at least 40% of it overlapped with a GFP positive area. The fraction of GFP-positive cells/mCherry-positive cells in each well was then calculated, and the green and red images were rescaled for visualization.

Another assay concerns the target T3, IKZF1 (Homo sapiens, UniProt Q13422).
T3 construct: expressed in transfected cells; host or cells: Flp-In 293
The assay can be described thus: Cellular degradation assay, eGFP-IKZF1Δ fusion with mCherry reporter in Flp-In 293 cells. Type of assay: cell-based. Conditions: 5 h incubation, n=1. An outline of the steps:
as §1

The next assay concerns the target GSPT1 (Homo sapiens, UniProt P15170+Q96SW2). As to the kind of experiment: Cellular degradation assay, eGFP-GSPT1 fusion with mCherry reporter in Flp-In 293 cells. The assay is classed as cell-based. Also noted: expressed in transfected cells; host or cells: Flp-In 293. Conditions: 5 h incubation, n=1. An outline of the steps:
as §1

[1] abbreviates: compound concentration 2.00E−05.
Where [2] appears, read: compound concentration 2.00E−06.
Where [3] appears, read: compound concentration 2.00E−07.
[4] abbreviates: compound concentration 6.6667E−05.
The mark [5] stands for this setting: compound concentration 6.6667E−06.
[6] abbreviates: compound concentration 6.6667E−07 (667 nM).

T3 sequence (Q13422 83-213 isoform Q13422-7 limits assumed): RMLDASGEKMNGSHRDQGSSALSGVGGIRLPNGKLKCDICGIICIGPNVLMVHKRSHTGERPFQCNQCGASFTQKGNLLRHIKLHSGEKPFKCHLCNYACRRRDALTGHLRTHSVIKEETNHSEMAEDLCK
T3 sequence (Q96SW2 whole entry partner): as the sequence (Q96SW2 whole entry) above
T3 sequence (Q16531 2-1140 partner limits assumed): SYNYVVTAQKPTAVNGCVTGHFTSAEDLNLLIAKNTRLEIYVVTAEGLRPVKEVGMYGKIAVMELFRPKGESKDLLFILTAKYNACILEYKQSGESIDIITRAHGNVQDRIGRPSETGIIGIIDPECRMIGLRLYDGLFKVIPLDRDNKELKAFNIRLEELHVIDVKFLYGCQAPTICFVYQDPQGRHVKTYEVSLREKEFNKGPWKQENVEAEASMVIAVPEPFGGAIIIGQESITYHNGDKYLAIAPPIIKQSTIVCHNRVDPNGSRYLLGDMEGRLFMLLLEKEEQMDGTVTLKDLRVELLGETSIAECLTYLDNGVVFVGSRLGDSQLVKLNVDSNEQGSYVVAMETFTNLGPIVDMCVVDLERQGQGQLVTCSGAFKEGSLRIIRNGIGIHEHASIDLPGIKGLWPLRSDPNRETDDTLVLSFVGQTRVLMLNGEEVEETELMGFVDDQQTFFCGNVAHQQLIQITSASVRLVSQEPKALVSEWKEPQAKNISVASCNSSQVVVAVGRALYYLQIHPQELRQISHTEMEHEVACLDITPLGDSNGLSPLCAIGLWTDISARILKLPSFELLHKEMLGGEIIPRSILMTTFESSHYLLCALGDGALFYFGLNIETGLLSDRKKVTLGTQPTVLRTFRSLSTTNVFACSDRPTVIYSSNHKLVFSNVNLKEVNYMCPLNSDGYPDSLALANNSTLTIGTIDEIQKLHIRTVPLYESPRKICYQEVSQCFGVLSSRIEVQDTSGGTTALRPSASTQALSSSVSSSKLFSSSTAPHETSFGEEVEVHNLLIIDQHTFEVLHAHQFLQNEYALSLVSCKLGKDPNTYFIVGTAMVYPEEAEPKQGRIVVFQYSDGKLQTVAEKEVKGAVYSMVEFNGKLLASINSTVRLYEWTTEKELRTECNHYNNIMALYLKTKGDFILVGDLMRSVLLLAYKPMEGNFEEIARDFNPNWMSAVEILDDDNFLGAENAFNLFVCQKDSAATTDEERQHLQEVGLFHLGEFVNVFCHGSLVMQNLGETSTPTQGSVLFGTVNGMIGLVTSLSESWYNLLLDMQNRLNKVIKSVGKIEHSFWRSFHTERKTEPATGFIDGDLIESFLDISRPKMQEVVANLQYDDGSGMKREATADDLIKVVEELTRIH
Chain of GSPT1 (P15170 whole entry, the tested form may be a part): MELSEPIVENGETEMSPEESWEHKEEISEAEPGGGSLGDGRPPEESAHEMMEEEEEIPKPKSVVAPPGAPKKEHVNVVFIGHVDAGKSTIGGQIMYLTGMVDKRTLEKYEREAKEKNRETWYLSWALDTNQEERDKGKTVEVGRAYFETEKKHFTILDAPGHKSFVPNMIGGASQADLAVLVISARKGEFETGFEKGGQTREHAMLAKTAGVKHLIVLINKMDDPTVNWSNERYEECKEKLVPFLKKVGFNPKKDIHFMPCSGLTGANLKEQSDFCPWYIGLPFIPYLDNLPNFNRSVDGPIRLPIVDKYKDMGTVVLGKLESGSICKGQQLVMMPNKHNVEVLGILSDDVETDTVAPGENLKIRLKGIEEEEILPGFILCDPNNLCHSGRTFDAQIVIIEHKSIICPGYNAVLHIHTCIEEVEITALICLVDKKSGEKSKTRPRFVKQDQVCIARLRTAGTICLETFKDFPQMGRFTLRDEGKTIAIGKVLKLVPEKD
Chain of GSPT1 (Q96SW2 whole entry, the tested form may be a part): as the sequence (Q96SW2 whole entry) above
Chain of GSPT1 (Q16531 whole entry partner, the tested form may be a part): as the sequence (Q16531 whole entry partner) above

Turning to `COC(=O)CCNC1=CC(=O)N(C2CCC(=O)NC2=O)C1=O` (stereo not drawn) [Compound 14, Methyl 3-((1-(2,6-dioxopiperidin-3-yl)-2,5-dioxo-2,5-dihydro-1H-pyrrol-3-yl)amino)propanoate], the figures for the “IKZF2 GFP/RFP Relative Abundance” value in the assay with IKZF2 (setting [1]), with IKZF2 (setting [2]) and with IKZF2 (setting [3]) were 1.022, 0.982 and 1.040, respectively. The “TR-FRET-IKZF2 (Normalized to CC-885)” value on CRBN and Helios (IKZF2) (setting [4]) is on record as 0.046; on CRBN and Helios (IKZF2) (setting [5]) it was 0.040; on CRBN and Helios (IKZF2) (setting [6]), 0.022. In addition, the “SALL4 ZNF1-2 GFP/RFP Relative Abundance” value at SALL4 ZNF1-2 (setting [1]) was found to be 0.955; on SALL4 ZNF1-2 (setting [2]) it was 0.944; at SALL4 ZNF1-2 (setting [3]), 0.983. The “IKZF1 GFP/RFP Relative Abundance” value on IKZF1 (setting [1]) was 1.033; at IKZF1 (setting [2]), 1.031; at IKZF1 (setting [3]), 1.043. In addition, the “GSPT1 GFP/RFP Relative Abundance” value on GSPT1 (setting [1]) amounted to 1.058; on GSPT1 (setting [2]), 1.018; at GSPT1 (setting [3]), 0.915.

`COC(=O)CN(C)C1=CC(=O)N(C2CCC(=O)NC2=O)C1=O` (stereo not drawn) [Compound 15, Methyl N-(1-(2,6-dioxopiperidin-3-yl)-2,5-dioxo-2,5-dihydro-1H-pyrrol-3-yl)-N-methylglycinate]: the entries for the “IKZF2 GFP/RFP Relative Abundance” value in the assay with IKZF2 (setting [1]), with IKZF2 (setting [2]) and in the assay with IKZF2 (setting [3]) were 1.024, 1.036 and 1.028, respectively. For the same compound, the “TR-FRET-IKZF2 (Normalized to CC-885)” value on CRBN and Helios (IKZF2) (setting [4]) stood at 0.050; on CRBN and Helios (IKZF2) (setting [5]), 0.039; at CRBN and Helios (IKZF2) (setting [6]) it was 0.025. Also, the “SALL4 ZNF1-2 GFP/RFP Relative Abundance” value on SALL4 ZNF1-2 (setting [1]) worked out at 0.912; at SALL4 ZNF1-2 (setting [2]), 0.910; on SALL4 ZNF1-2 (setting [3]) it was 1.047. Moreover, the “IKZF1 GFP/RFP Relative Abundance” value amounted to 1.041 on IKZF1 (setting [1]), 1.032 on IKZF1 (setting [2]) and 0.996 at IKZF1 (setting [3]). The figures for the “GSPT1 GFP/RFP Relative Abundance” value on GSPT1 (setting [1]), on GSPT1 (setting [2]) and at GSPT1 (setting [3]) were 1.009, 1.036 and 1.043, respectively.

For `CCOC(=O)CNC1=CC(=O)N(C2CCC(=O)NC2=O)C1=O` (stereo not drawn) [Compound 16, Ethyl (1-(2,6-dioxopiperidin-3-yl)-2,5-dioxo-2,5-dihydro-1H-pyrrol-3-yl)glycinate], the figures for the “IKZF2 GFP/RFP Relative Abundance” value in the assay with IKZF2 (setting [1]), in the assay with IKZF2 (setting [2]) and in the assay with IKZF2 (setting [3]) were 0.987, 1.015 and 1.006, respectively. For the same compound, the “TR-FRET-IKZF2 (Normalized to CC-885)” value on CRBN and Helios (IKZF2) (setting [4]) was found to be 0.032; at CRBN and Helios (IKZF2) (setting [5]) it was 0.028; on CRBN and Helios (IKZF2) (setting [6]), 0.018. Also, the figures for the “SALL4 ZNF1-2 GFP/RFP Relative Abundance” value on SALL4 ZNF1-2 (setting [1]), at SALL4 ZNF1-2 (setting [2]) and on SALL4 ZNF1-2 (setting [3]) were 1.001, 1.007 and 1.013, respectively. Further, the “IKZF1 GFP/RFP Relative Abundance” value on IKZF1 (setting [1]) is 1.070; at IKZF1 (setting [2]), 1.011; on IKZF1 (setting [3]), 1.053. The results for the “GSPT1 GFP/RFP Relative Abundance” value on GSPT1 (setting [1]), at GSPT1 (setting [2]) and on GSPT1 (setting [3]) were 0.978, 0.876 and 1.006, respectively.

As to `CCOC(=O)CN(C)C1=CC(=O)N(C2CCC(=O)NC2=O)C1=O` (stereo not drawn) [Compound 17, Ethyl N-(1-(2,6-dioxopiperidin-3-yl)-2,5-dioxo-2,5-dihydro-1H-pyrrol-3-yl)-N-methylglycinate], the “IKZF2 GFP/RFP Relative Abundance” value in the assay with IKZF2 (setting [1]) is 1.006; in the assay on IKZF2 (setting [2]) it was 0.996; in the assay on IKZF2 (setting [3]), 1.037. Moreover, the “TR-FRET-IKZF2 (Normalized to CC-885)” value was 0.043 on CRBN and Helios (IKZF2) (setting [4]); 0.032 on CRBN and Helios (IKZF2) (setting [5]); 0.015 on CRBN and Helios (IKZF2) (setting [6]). Moreover, the “SALL4 ZNF1-2 GFP/RFP Relative Abundance” value at SALL4 ZNF1-2 (setting [1]) is 0.897; on SALL4 ZNF1-2 (setting [2]), 0.912; at SALL4 ZNF1-2 (setting [3]), 0.895. Further, the “IKZF1 GFP/RFP Relative Abundance” value on IKZF1 (setting [1]) came to 1.020; at IKZF1 (setting [2]), 1.018; on IKZF1 (setting [3]) it was 1.025. For the same compound, the figures for the “GSPT1 GFP/RFP Relative Abundance” value on GSPT1 (setting [1]), on GSPT1 (setting [2]) and on GSPT1 (setting [3]) were 0.942, 1.001 and 0.795, respectively.

Turning to `O=C1CCC(N2C(=O)C=C(Nc3nc[nH]n3)C2=O)C(=O)N1` (stereo not drawn) [Compound 18, 3-(3-((1H-1,2,4-triazol-3-yl)amino)-2,5-dioxo-2,5-dihydro-1H-pyrrol-1-yl)piperidine-2,6-dione], the “IKZF2 GFP/RFP Relative Abundance” value with IKZF2 (setting [1]) came out at 1.055; with IKZF2 (setting [2]), 0.992; in the assay on IKZF2 (setting [3]) it was 0.990. For the same compound, the “TR-FRET-IKZF2 (Normalized to CC-885)” value on CRBN and Helios (IKZF2) (setting [4]) amounted to 0.062; on CRBN and Helios (IKZF2) (setting [5]) it was 0.018; on CRBN and Helios (IKZF2) (setting [6]) it was 0.024. The “SALL4 ZNF1-2 GFP/RFP Relative Abundance” value was determined as 0.967 at SALL4 ZNF1-2 (setting [1]), 0.999 at SALL4 ZNF1-2 (setting [2]) and 0.904 on SALL4 ZNF1-2 (setting [3]). Besides, the “IKZF1 GFP/RFP Relative Abundance” value at IKZF1 (setting [1]) came out at 0.943; on IKZF1 (setting [2]), 0.833; at IKZF1 (setting [3]), 0.847. The “GSPT1 GFP/RFP Relative Abundance” value at GSPT1 (setting [1]) is on record as 0.880; at GSPT1 (setting [2]) it was 0.650; on GSPT1 (setting [3]) it was 0.498.

In the case of `O=C1CCC(N2C(=O)C=C(Nc3nccs3)C2=O)C(=O)N1` (stereo not drawn) [Compound 19, 3-(2,5-dioxo-3-(thiazol-2-ylamino)-2,5-dihydro-1H-pyrrol-1-yl)piperidine-2,6-dione], the “IKZF2 GFP/RFP Relative Abundance” value in the assay with IKZF2 (setting [1]) is listed as 0.653; in the assay on IKZF2 (setting [2]), 0.980; with IKZF2 (setting [3]), 0.991. In addition, the “TR-FRET-IKZF2 (Normalized to CC-885)” value at CRBN and Helios (IKZF2) (setting [4]) came to 0.217; at CRBN and Helios (IKZF2) (setting [5]), 0.041; on CRBN and Helios (IKZF2) (setting [6]) it was 0.057. Moreover, the entries for the “SALL4 ZNF1-2 GFP/RFP Relative Abundance” value at SALL4 ZNF1-2 (setting [1]), at SALL4 ZNF1-2 (setting [2]) and on SALL4 ZNF1-2 (setting [3]) were 1.010, 1.012 and 0.597, respectively. Also, the “IKZF1 GFP/RFP Relative Abundance” value at IKZF1 (setting [1]) was found to be 0.216; on IKZF1 (setting [2]), 0.818; on IKZF1 (setting [3]), 0.110. Besides, the “GSPT1 GFP/RFP Relative Abundance” value is reported as 1.023 at GSPT1 (setting [1]), 0.946 at GSPT1 (setting [2]) and 0.953 at GSPT1 (setting [3]).
